Earlier results in patent US6337095B1, “Process for the isolation of compound scopoletin useful as nitric oxide synthesis inhibitor” (Council of Scientific and Industrial Research, priority 2000, dated 2002).

Tested on: murine macrophages
Details: reported in literature (Planta Medica 65:400-403, 1999)

COc1cc2ccc(=O)oc2cc1O [scopoletin, 7-hydroxy-6-methoxy coumarin]
inhibition of nitric oxide (NO) synthesis: showed inhibition
